The test system of one assay is HepG2 cells. In words: cells. The note with it: Homo sapiens, HepG2, read-out: In vitro cytotoxicity IC50, HepG2.
In assay [1] the test system is MCF-7 cells. Put plainly: cells. The note with it: Homo sapiens, MCF7, read-out: In vitro cytotoxicity IC50, MCF-7.
In assay [2] the test system is normal human lung cells (WI-38). Put plainly: cells. The note with it: WI-38, read-out: WI-38 IC50.
The target in the next assay is Human VEGFR-2 (Homo sapiens, UniProt P35968). Put plainly: In vitro VEGFR-2 inhibition, VEGFR-2 ELISA kit. The format is biochemical.
In assay [3] the test system is MCF-7 cells. Put plainly: Cell cycle analysis by flow cytometry. The format is cell-based. The note with it: 0.041 μM, 72 h.
Assay [4] has as its system MCF-7 cells. Put plainly: Cell migration and scratch wound healing assay. Format: cell-based.
In assay [5] the test system is normal human lung cells (WI-38). The note with it: WI-38 versus HepG2.
Assay [6] concerns MCF-7 cells. In words: Apoptosis assay, annexin V-FITC/PI. The format is cell-based. The note with it: 0.04 μM, 72 h.
In the next assay the test system is Bcl-2. The format is cell-based. The note with it: MCF-7, 0.04 μM.

As a reminder, the IC50 is the point on the concentration scale where inhibition reaches its midpoint.

Human VEGFR-2, sequence (P35968 20-1356): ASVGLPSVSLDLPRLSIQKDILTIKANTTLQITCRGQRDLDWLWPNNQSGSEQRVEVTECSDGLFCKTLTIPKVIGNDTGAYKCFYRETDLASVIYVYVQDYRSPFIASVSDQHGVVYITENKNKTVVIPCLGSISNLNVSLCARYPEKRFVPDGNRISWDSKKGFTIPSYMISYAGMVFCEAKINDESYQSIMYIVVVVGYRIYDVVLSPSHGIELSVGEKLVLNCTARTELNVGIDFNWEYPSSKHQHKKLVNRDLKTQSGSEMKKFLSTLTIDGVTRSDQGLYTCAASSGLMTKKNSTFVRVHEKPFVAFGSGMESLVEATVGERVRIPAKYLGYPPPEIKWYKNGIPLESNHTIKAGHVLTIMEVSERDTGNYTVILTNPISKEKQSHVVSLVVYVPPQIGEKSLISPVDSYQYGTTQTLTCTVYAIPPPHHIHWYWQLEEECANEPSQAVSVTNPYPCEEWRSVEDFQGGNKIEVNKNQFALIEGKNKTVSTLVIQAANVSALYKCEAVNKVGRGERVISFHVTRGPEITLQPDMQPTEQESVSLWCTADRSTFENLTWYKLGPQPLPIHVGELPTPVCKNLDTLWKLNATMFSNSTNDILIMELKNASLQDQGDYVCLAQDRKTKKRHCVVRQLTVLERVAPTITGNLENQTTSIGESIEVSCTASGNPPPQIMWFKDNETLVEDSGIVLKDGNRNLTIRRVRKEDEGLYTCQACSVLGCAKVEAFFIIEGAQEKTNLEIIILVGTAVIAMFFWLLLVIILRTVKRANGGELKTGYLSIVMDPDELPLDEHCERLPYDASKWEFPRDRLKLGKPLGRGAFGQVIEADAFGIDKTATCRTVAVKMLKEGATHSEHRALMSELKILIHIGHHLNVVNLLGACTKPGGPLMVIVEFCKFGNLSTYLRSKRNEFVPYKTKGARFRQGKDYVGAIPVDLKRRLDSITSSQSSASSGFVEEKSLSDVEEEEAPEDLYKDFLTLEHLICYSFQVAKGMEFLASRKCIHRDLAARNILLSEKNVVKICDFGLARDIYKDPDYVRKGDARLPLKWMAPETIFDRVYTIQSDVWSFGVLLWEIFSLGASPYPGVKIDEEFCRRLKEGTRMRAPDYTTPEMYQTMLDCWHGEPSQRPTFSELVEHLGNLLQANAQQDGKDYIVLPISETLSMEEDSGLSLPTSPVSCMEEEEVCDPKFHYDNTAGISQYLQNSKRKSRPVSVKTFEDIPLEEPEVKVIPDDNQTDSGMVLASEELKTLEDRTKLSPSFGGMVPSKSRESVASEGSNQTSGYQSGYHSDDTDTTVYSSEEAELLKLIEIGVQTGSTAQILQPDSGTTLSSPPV

As to `COc1ccc(-n2nc(C(C)=O)s/c2=N\N=C(/C)c2ccc(NC(=O)c3ccc(C)cc3)cc2)cc1` [Compound 18e, N-(4-((E)-1-(((Z)-5-Acetyl-3-(4-methoxyphenyl)-1,3,4-thiadiazol-2(3H)-ylidene) hydrazono)ethyl)phenyl)-4-methylbenzamide], the figures for the IC50 in the assay on HepG2 cells and with MCF-7 cells [1] were 210 ± 45 nM and 190 ± 45 nM, respectively.
Taken in the same sequence, the figures for `COc1ccc(-n2nc(C(C)=O)s/c2=N\N=C(/C)c2ccc(NC(=O)c3ccc(Cl)cc3)cc2)cc1` [Compound 18c, N-(4-((E)-1-(((Z)-5-Acetyl-3-(4-methoxyphenyl)-1,3,4-thiadiazol-2(3H)-ylidene) hydrazono)ethyl)phenyl)-4-chlorobenzamide] were 160 ± 32 nM and 190 ± 14 nM.
Taken in the same sequence, the figures for `COc1ccc(-n2nc(C(C)=O)s/c2=N\N=C(/C)c2ccc(NC(=O)c3ccccc3)cc2)cc1` [Compound 18a, N-(4-((E)-1-(((Z)-5-Acetyl-3-(4-methoxyphenyl)-1,3,4-thiadiazol-2(3H)-ylidene) hydrazono)ethyl)phenyl) benzamide] were 800 ± 12 nM and 160 ± 17 nM.
Regarding `COc1ccc(-n2nc(C(C)=O)s/c2=N\N=C(/C)c2ccc(NC(C)=O)cc2)cc1` [Compound 14, N-(4-((E)-1-(((Z)-5-acetyl-3-(4-methoxyphenyl)-1,3,4-thiadiazol-2(3H)-ylidene)hydrazineylidene)ethyl)phenyl)acetamide], the IC50 in [2] worked out at 140 nM. The compound further showed a half-maximal inhibitory concentration (IC50) against Human VEGFR-2 (VEGFR-2 IC50, as printed in section 3.2.3) of 243 nM. The IC50 at Human VEGFR-2 (VEGFR-2 IC50, as printed in the abstract) came to 103 nM. Also, the IC50 with HepG2 cells came out at 180 ± 6 nM. For the same compound, the IC50 in the assay on MCF-7 cells [1] was determined as 40 ± 9 nM. Further, in the assay with MCF-7 cells [3], the “Cell cycle distribution (%) G0–G1” value amounted to 68.43%, the “Cell cycle distribution (%) G2/M” value came to 9.3%, the “Cell cycle distribution (%) S” value stood at 22.27% and the “Increase of cell population at G0–G1 phase versus control” value amounted to 1.09 fold. In the assay on MCF-7 cells [4] (MCF-7, after 48 h), the “Area difference (%)” value worked out at 361.667% and the “RM (rate of migration)” value worked out at 7.532 μm. Further, in the assay on MCF-7 cells [4] (MCF-7 scratch assay), the “Wound area at 0 h” value was determined as 933.000 μm^2, the “Wound area at 24 h” value is given as 836.333 μm^2, the “Wound area at 48 h” value amounted to 571.333 μm^2 and the “Wound width at 0 h” value came to 932.006 μm. In addition, in the assay on MCF-7 cells [4] (MCF-7 scratch assay), the “Wound width at 24 h” value came to 835.443 μm and the “Wound width at 48 h” value was 570.472 μm. The “Selectivity index, HepG2” value in [5] was roughly 1.28. Moreover, in the assay with MCF-7 cells [6], the “Early apoptosis (%)” value is 16.53%, the “Late apoptosis (%)” value is recorded as 29.57%, the “Necrosis (%)” value is 5.95% and the “Necrosis percentage enhancement versus control” value is “four-fold”. Moreover, in the assay on MCF-7 cells [6], the “Total apoptosis (%)” value stood at 52.05% and the “Total apoptosis enhancement versus control” value is 22 fold. Besides, in the assay with Bcl-2, the “Lowering of Bcl-2 level versus control” value worked out at 6.2 fold. In the assay on Bcl-2 (control = 1), the “RT-PCR fold change, Bcl2” value was found to be 0.159 fold.
For `CC(=O)c1nn(-c2ccc(Cl)cc2)/c(=N/N=C(\C)c2ccc(NC(=O)c3ccc(C)cc3)cc2)s1` [Compound 18f, N-(4-((E)-1-(((Z)-5-Acetyl-3-(4-chlorophenyl)-1,3,4-thiadiazol-2(3H)-ylidene) hydrazono)ethyl)phenyl)-4-methylbenzamide], the IC50 is 180 ± 18 nM in the assay with HepG2 cells and 440 ± 65 nM in the assay on MCF-7 cells [1].
For the compound `CC(=O)c1nn(-c2ccc(Cl)cc2)/c(=N/N=C(\C)c2ccc(NC(=O)c3ccccc3)cc2)s1` [Compound 18b, N-(4-((E)-1-(((Z)-5-Acetyl-3-(4-chlorophenyl)-1,3,4-thiadiazol-2(3H)-ylidene) hydrazono)ethyl)phenyl) benzamide], the half-maximal inhibitory concentration (IC50) in the assay on HepG2 cells was found to be 200 ± 11 nM; in the assay with MCF-7 cells [1] it was 220 ± 98 nM.
Taken in the same sequence, the figures for `CC(=O)c1nn(-c2ccc(Cl)cc2)/c(=N/N=C(\C)c2ccc(NC(=O)c3ccc(Cl)cc3)cc2)s1` [Compound 18d, N-(4-((E)-1-(((Z)-5-Acetyl-3-(4-chlorophenyl)-1,3,4-thiadiazol-2(3H)-ylidene) hydrazono)ethyl)phenyl)-4-chlorobenzamide] were 6170 ± 19 nM and 5000 ± 192 nM.
Taken in the same sequence, the figures for `CNC(=O)c1cc(Oc2ccc(NC(=O)Nc3ccc(Cl)c(C(F)(F)F)c3)cc2)ccn1` [Sorafenib, reference compound] were 140 ± 52 nM and 150 ± 13 nM.

Source of the values: paper PMC10728955 (RSC Advances, 2023).
